{"source": "patent US20190125751A1", "about": "“ANTICANCER COMBINATION THERAPY” (BOEHRINGER INGELHEIM INTERNATIONAL GMBH, priority 2016, published 2019)", "key": {"[1]": {"tested_on": "T790M-containing cell lines", "details": "several preclinical models; cited from earlier work"}, "[2]": {"tested_on": "EGFR mutant cell lines", "assay": "cellular proliferation assays comparing EGFR mutant with EGFR wild type cell lines", "format": "cell-based", "details": "EGFR mutant versus EGFR wild type cell lines", "source_text": "(§1) Compound A is a small molecule epidermal growth factor receptor (EGFR) mutant-specific inhibitor. […] Compound A is a novel, 3rd generation EGFR mutant-specific TKI, which is currently being investigated in first and second line setting for treatment of patients with EGFR-mutated NSCLC."}, "[3]": {"tested_on": "mutant forms of EGFR", "assay": "enzymatic inhibitory activity, mutant forms of EGFR versus wild type EGFR", "format": "biochemical", "details": "in vitro", "source_text": "as §1"}, "[4]": {"tested_on": "HCC827 (EGFRDelE746-A750)", "assay": "in vivo xenograft study in mice, NSCLC model HCC827", "details": "once daily or twice daily", "source_text": "as §1"}, "[5]": {"tested_on": "H1975 (EGFRL858R/T790M)", "assay": "in vivo xenograft study in mice, NSCLC model H1975", "details": "once daily or twice daily", "source_text": "as §1"}, "[6]": {"details": "mouse, in vivo", "source_text": "as §1"}, "[7]": {"tested_on": "EGFR-exon 19 deletion+T790M+C797S", "details": "preclinical models; cited from earlier work"}}, "data": [{"smiles": "CN(C)C/C=C/C(=O)Nc1cc2c(Nc3ccc(F)c(Cl)c3)ncnc2cc1O[C@H]1CCOC1", "note": "[Compound B, afatinib]", "values": [{"measurement": "inhibition of T790M-containing cell lines", "setting": "[1]", "result": "effectively inhibit"}]}, {"smiles": "C=CC(=O)Nc1cccc(Oc2nc(Nc3ccc(N4CCN(C)CC4)cc3)nc3ccsc23)c1", "note": "[Compound A, N-(3-{2-[4-(4-methyl-piperazin-1-yl)-phenylamino]-thieno[3,2-d]pyrimidin-4-yloxy}-phenyl)-acrylamide]", "values": [{"measurement": "inhibition of proliferation of mutated cell lines at lower concentration than for cells expressing wild type EGFR receptor", "setting": "[2]", "result": "approximately 35 fold"}, {"measurement": "enzymatic inhibitory activity towards mutant forms of EGFR compared to wild type EGFR", "setting": "[3]", "result": "more potent"}, {"measurement": "anti-tumor activity as a single agent", "setting": "[4]", "result": "Tumor regressions were observed in all models"}, {"measurement": "anti-tumor activity as a single agent", "setting": "[5]", "result": "Tumor regressions were observed in all models"}, {"measurement": "tolerability", "setting": "[6]", "result": "tolerated by the mice"}]}, {"smiles": "C=CC(=O)Nc1cc(Nc2nccc(-c3cn(C)c4ccccc34)n2)c(OC)cc1N(C)CCN(C)C", "note": "[AZD9291, osimertinib]", "values": [{"measurement": "sensitivity of the mutant protein to the drug", "setting": "[7]", "result": "resistant"}]}, {"smiles": "COc1cc2ncnc(Nc3ccc(F)c(Cl)c3)c2cc1NC(=O)/C=C/CN1CCCCC1", "note": "[dacomitinib]", "values": [{"measurement": "inhibition of T790M-containing cell lines", "setting": "[1]", "result": "effectively inhibit"}]}]}
